Source: patent US12478616B2, “PI3K inhibitors and uses thereof” (Sloan-Kettering Institute for Cancer Research, priority 2018, dated 2025)
Like-named read-outs stand apart in the source and are kept apart here. Marks after values point to notes of the source that are not given here.

Assays:
[1] = molecular target: PI3Kα (Homo sapiens (Human), UniProt P42336); assay: PI3Kα kinase (biochemical) assay
[2] = system: S6 ribosomal protein (S6) phosphorylation; conditions: single administration; free BYL719 oral, Fi(BYL719) 25 mg/kg; up to 24 hours; cited from earlier work
[3] = rat, BYL719 dose 3.4 mg/kg IV, cited from earlier work
[4] = Mouse pharmacokinetics, cassette dosed free drug; assay type: in vivo; conditions: for MRTiv / BA / MRTpo / Tmax / AUC / concentration at 5 min / clearance / Vd / Cmax: cassette; for concentration at 5 min: read-out: C5min; for clearance: read-out: Cltotal (converted); for Vd: read-out: VDss
Text: (§1) Mouse PK data for Compound (14) (cassette dosing) for free drug (i.e., not nanoformulated) is tabulated in Table 2 using amorphous material. […] The corresponding rat PK data is tabulated in Table 3, where the results are consistent with mouse PK data.

[5] = system: PI3K; assay: PI3K cellular assays; assay type: cell-based; design: key: Inactive (−); Low (+); Intermediate (++); High (+++); conditions: for PI3K cellular activity: Table 1
[6] = 60 consecutive days; BYL719 50 mg/kg/day, Fi(BYL719) 50 mg/kg/week; cited from earlier work
[7] = Fucoidan nanoparticle formulation, drug load and particle size; assay type: physicochemical; conditions: Table 1
Protocol: FIG. 13. Generation of Compound (14) Nanoparticles [Fi(Compound (14))]. An aliquot of 0.1 mL of Compound (14) dissolved in dimethyl sulfoxide (25 mg/mL) was added drop-wise ([…]) to a 0.6 mL aqueous polysaccharide solution (15 mg/mL) containing IR820 (2.5 mg/mL) and 0.05 mM sodium bicarbonate. An aliquot of 0.1 mL of 8-arm PEG-amine dissolved in water (Creative Peg Works, 20 kD, 5 mg/mL) was added drop-wise to the mixture followed by centrifugation (20,000 g, 30 min). The nanoparticle pellet was re-suspended in 1 mL of sterile PBS. The suspension was sonicated for 10 s with a probe tip ultrasonicator at 40% intensity (Sonics inc). The nanoparticles were lyophilized in a 5% saline/sucrose solution.
Nanoformulated Compound (14) [Fi(Compound (14))] was typically prepared as illustrated in FIG. 13 by adding a DMSO solution dropwise to an aqueous polysaccharide solution containing the near-IR dye IR820. This was followed by the addition of an aqueous solution containing 20 kD, 8-arm PEG-amine, centrifugation and ultra-sonication yielding nanoparticles (<200 nm) with good batch consistency (FIG. 14). […]
Importantly, each of these 3 new derivatives shown in Table 8 were successfully encapsulated in fucoidan polysaccharide nanoparticles. Following nanoformulation, the drug loading in the nanoparticle for each analog was determined.

[8] = system: H22 patient-derived xenografts; conditions: Fi(BYL719) 25 mg/kg twice a week; free BYL719 7 mg/kg/day (50 mg/kg/week); cited from earlier work
[9] = system: Cal-33 xenografts; conditions: Fi(BYL719) 25 mg/kg twice a week; free BYL719 7 mg/kg/day (50 mg/kg/week); cited from earlier work
[10] = cited from earlier work
[11] = healthy mice, single dose, BYL719 25 or 50 mg/kg, Fi(BYL719) 25 mg/kg, cited from earlier work
[12] = system: ERK phosphorylation; conditions: cited from earlier work
[13] = Rat pharmacokinetics, cassette dosed free Compound (14); assay type: in vivo
Text: as §1

[14] = system: B16F10 melanoma lung metastases; conditions: FiDOX 1, 5 and 30 mg/kg; free doxorubicin 6 mg/kg; cited from earlier work
[15] = Table 4, pyridine-modified inhibitors, read-out: PI3Kα (IC50)
[16] = Table 5, pyrone inhibitors, read-out: PI3Kα (IC50)
[17] = IV 0.1 mg/kg, 1 mL/kg (10-in-One)
[18] = in vivo, IV 0.1 mg/kg, 1 mL/kg (10-in-One), read-out: AUCiv
[19] = in vivo, IV 0.1 mg/kg, 1 mL/kg (10-in-One)
[20] = in vivo, PO 1 mg/kg, 5 mL/kg (5-in-One)
[21] = in vivo, PO 1 mg/kg, 5 mL/kg (5-in-One), read-out: AUCpo
[22] = Table 6, proline-modified inhibitors, read-out: PI3Kα (IC50)

PI3Kα, sequence (P42336 whole entry): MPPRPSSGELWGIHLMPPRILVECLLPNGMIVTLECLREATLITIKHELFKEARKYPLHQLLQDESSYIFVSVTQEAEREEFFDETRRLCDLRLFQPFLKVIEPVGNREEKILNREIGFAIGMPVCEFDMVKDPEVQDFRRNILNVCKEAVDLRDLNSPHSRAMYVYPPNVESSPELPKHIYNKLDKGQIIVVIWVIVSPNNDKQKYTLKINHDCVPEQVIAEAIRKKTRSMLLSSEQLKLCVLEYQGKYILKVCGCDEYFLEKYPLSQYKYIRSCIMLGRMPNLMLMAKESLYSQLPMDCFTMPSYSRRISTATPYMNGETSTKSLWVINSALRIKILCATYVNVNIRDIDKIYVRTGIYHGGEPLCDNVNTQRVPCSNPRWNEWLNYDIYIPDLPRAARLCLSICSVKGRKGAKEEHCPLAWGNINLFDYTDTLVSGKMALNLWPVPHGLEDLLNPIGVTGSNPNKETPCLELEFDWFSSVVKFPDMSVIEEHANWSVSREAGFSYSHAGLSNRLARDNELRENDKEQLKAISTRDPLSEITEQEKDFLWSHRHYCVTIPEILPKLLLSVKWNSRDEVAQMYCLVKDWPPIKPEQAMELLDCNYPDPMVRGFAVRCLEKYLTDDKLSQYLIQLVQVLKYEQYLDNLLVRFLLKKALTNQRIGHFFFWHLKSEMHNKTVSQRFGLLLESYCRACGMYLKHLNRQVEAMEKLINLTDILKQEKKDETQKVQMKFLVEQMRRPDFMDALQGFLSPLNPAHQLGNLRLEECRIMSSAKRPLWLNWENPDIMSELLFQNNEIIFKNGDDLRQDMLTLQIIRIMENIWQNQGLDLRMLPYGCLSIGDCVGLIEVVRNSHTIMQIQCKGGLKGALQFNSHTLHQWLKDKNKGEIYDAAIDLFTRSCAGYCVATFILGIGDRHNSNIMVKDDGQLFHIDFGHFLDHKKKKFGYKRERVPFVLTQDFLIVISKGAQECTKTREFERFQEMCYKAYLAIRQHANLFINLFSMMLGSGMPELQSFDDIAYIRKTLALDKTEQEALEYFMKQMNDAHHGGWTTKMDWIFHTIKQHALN
PI3Kα, sequence (P27986 whole entry partner): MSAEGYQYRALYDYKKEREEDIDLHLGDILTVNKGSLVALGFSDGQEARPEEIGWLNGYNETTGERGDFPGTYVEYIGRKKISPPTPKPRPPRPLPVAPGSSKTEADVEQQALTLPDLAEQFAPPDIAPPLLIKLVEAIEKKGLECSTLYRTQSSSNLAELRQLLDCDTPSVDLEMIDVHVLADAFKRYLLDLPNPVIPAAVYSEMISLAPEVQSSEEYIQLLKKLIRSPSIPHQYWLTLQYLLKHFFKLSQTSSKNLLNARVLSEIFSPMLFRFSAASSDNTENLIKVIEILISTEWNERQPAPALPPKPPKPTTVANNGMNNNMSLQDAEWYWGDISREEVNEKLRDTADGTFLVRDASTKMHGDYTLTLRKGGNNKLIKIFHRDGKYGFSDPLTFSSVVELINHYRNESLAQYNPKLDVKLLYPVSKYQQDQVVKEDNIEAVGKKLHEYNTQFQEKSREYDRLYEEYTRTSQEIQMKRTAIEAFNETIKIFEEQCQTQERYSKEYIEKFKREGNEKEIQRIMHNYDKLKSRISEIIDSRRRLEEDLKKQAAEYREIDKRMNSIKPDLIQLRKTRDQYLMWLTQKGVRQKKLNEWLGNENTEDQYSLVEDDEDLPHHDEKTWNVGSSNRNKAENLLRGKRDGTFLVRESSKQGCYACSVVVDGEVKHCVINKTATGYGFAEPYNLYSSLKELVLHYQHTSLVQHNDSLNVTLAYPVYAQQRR

SMILES: Cc1nc(NC(=O)N2CCC[C@H]2C(N)=O)sc1-c1ccnc(C(C)(C)C(=O)OC(C)OC(=O)OC2CCCCC2)c1 (some centres unmarked) [Compound (3)]
- IC50 [1, 15]: < 100 nM

SMILES: CCOC(=O)[C@@H]1C[C@@H](C(N)=O)N(C(=O)Nc2nc(C)c(-c3cc(C(C)(C)C(F)(F)F)oc(=O)c3)s2)C1 [Compound (11)]
- PI3Kα inhibition in biochemical assay (in words) [1]: active
- IC50 [1, 16]: < 100 nM

SMILES: CCOC(=O)[C@H]1C[C@@H](C(N)=O)N(C(=O)Nc2nc(C)c(-c3cc(C(C)(C)C(F)(F)F)oc(=O)c3)s2)C1 [Compound (12)]
- PI3Kα inhibition in biochemical assay (in words) [1]: active
- IC50 [1, 16]: < 100 nM

SMILES: Cc1nc(NC(=O)N2CCC[C@H]2C(N)=O)sc1-c1ccnc(C(C)(C)C(F)(F)F)c1 [BYL719, alpelisib, reference compound]
- inhibition of S6 phosphorylation in tumor [2]: strong albeit transient inhibition
- BA ([3]; 15 mg/kg PO): 58%
- Cltotal [3]: 10 mL/min/kg
- MRTiv [3]: 2.9 h
- VDss [3]: 1.9 L/kg
- MRTiv [4, 17]: 1.12 h
- BA ([4]; IV 0.1 mg/kg, PO 1 mg/kg): 71.2%
- MRTpo ([4]; PO 1 mg/kg, 5 mL/kg (5-in-One)): 2.12 h
- Tmax ([4]; PO 1 mg/kg, 5 mL/kg (5-in-One)): 1 h
- AUC [4, 18]: 73.9 ng·h/mL
- concentration at 5 min [4, 19]: 56.4 ng/mL
- clearance [4, 19]: 22.9 mL/min/kg
- Vd [4, 19]: 1.54 L/kg
- Cmax [4, 20]: 184 ng/mL
- AUC [4, 21]: 526 ng·h/mL
- PI3K cellular activity [5]: (+++)***
- serum glucose and insulin levels after chronic treatment [6]: Significantly elevated
- Nanoparticle drug load, % [7]: 22%
- antitumor activity in H22 [8]: transient delay of tumor growth followed by acquired insensitivity to the treatment
- antitumor activity in Cal-33 [9]: no appreciable antitumor activity
- observed half-life in humans [10]: 11.5 h
- serum glucose levels [11]: spike
- serum insulin levels ([11]; within 24 hours): spike

SMILES: Cc1cc(-c2sc(NC(=O)N3CCC[C@H]3C(N)=O)nc2C)cc(=O)o1 [Compound (15)]
- IC50 [1, 16]: < 500 nM

SMILES: CCOC(=O)[C@@H]1CCN(C(=O)Nc2nc(C)c(-c3ccnc(C(C)(C)C(F)(F)F)c3)s2)[C@@H]1C(N)=O [Compound (20)]
- PI3Kα inhibition in biochemical assay (in words) [1]: good intrinsic PI3Kα potency
- IC50 [1, 22]: < 100 nM

SMILES: Cc1nc(NC(=O)N2CCC[C@H]2C(N)=O)sc1-c1cc(C(C)C)oc(=O)c1 [Compound (13)]
- IC50 [1, 16]: < 100 nM

SMILES: COC(=O)C(C)(C)c1cc(-c2sc(NC(=O)N3CCC[C@H]3C(N)=O)nc2C)ccn1 [Compound (8)]
- IC50 [1, 15]: < 100 nM

SMILES: Cn1cnc2c(F)c(Nc3ccc(Br)cc3F)c(C(=O)NOCCO)cc21 [MEK162]
- pERK inhibition in the skin ([12]; 4 and 24 hours): phosphorylation returned in both tissues after 24 hours
- pERK inhibition in the tumor ([12]; after 24 hours): phosphorylation returned in both tissues after 24 hours

SMILES: CCOC(=O)C1(c2cc(-c3sc(NC(=O)N4CCC[C@H]4C(N)=O)nc3C)ccn2)CC1 [Compound (5)]
- IC50 [1, 15]: < 100 nM

SMILES: COC(=O)c1cc(-c2sc(NC(=O)N3CCC[C@H]3C(N)=O)nc2C)ccn1 [Compound (9)]
- IC50 [1, 15]: < 100 nM

SMILES: CCOC(=O)C1CC(C(N)=O)N(C(=O)Nc2nc(C)c(-c3ccnc(C(C)(C)C(F)(F)F)c3)s2)C1 (centres unmarked) [Compound (21)]
- PI3Kα inhibition in biochemical assay (in words) [1]: good intrinsic PI3Kα potency
- IC50 [1, 22]: < 100 nM

SMILES: Cc1nc(NC(=O)N2CCC[C@H]2C(N)=O)sc1-c1ccnc(C(C)(C)C(=O)O)c1 [Compound (7)]
- IC50 [1, 15]: < 100 nM

SMILES: CCOC(=O)[C@@H]1CCN(C(=O)Nc2nc(C)c(-c3cc(C(C)(C)C(F)(F)F)oc(=O)c3)s2)[C@@H]1C(N)=O [Compound (10)]
- PI3Kα inhibition in biochemical assay (in words) [1]: active
- IC50 [1, 16]: < 100 nM

SMILES: Cc1nc(NC(=O)N2CCC[C@H]2C(N)=O)sc1-c1ccnc(C(C)(C)C(=O)OCc2oc(=O)oc2C)c1 [Compound (4)]
- IC50 [1, 15]: < 100 nM

SMILES: CCOC(=O)CC(C)(C)c1cc(-c2sc(NC(=O)N3CCC[C@H]3C(N)=O)nc2C)ccn1 [Compound (2)]
- IC50 [1, 15]: < 100 nM

SMILES: Cc1nc(NC(=O)N2CCC[C@H]2C(N)=O)sc1-c1cc(C(C)(C)C(F)(F)F)oc(=O)c1 [Compound (14)]
- mean residence time (in words) ([4]; cassette dosing, free drug): short mean residence time
- oral bioavailability (in words) ([4]; cassette dosing, free drug): modest oral bioavailability
- total clearance (in words) ([4]; cassette dosing, free drug): high total clearance
- MRTiv [4, 17]: 0.31 h
- BA ([4]; IV 0.1 mg/kg, PO 1 mg/kg): 13.5%
- MRTpo ([4]; PO 1 mg/kg, 5 mL/kg (5-in-One)): 1.07 h
- AUC [4, 18]: 17.8 ng·h/mL
- concentration at 5 min [4, 19]: 66.4 ng/mL
- clearance [4, 19]: 96.5 mL/min/kg
- Vd [4, 19]: 1.78 L/kg
- Cmax [4, 20]: 17.1 ng/mL
- AUC [4, 21]: 24 ng·h/mL
- Tmax ([4]; in vivo, PO 1 mg/kg, 5 mL/kg (5-in-One), read-out: Tmax): 0.42 h
- efficacy in PI3K cellular assays [5]: (+++)
- PI3K cellular activity [5]: (+++)***
- Nanoparticle drug load, % [7]: 22%
- MRTiv [13, 17]: 0.42 h
- BA ([13]; IV 0.1 mg/kg, PO 1 mg/kg): 5.9%
- MRTpo ([13]; PO 1 mg/kg, 5 mL/kg (5-in-One)): 2.1 h
- AUC [13, 18]: 45.1 ng·h/mL
- concentration at 5 min ([13]; in vivo, IV 0.1 mg/kg, 1 mL/kg (10-in-One), read-out: C5min): 114 ng/mL
- clearance ([13]; in vivo, IV 0.1 mg/kg, 1 mL/kg (10-in-One), read-out: Cltotal (converted)): 37 mL/min/kg
- Vd ([13]; in vivo, IV 0.1 mg/kg, 1 mL/kg (10-in-One), read-out: VDss): 0.932 L/kg
- Cmax [13, 20]: 11.8 ng/mL
- Tmax [13, 20]: 0.5 h
- AUC [13, 21]: 26.9 ng·h/mL
- PI3Kα inhibition in biochemical assay (in words) [1]: potent inhibitor
- IC50 ([1]; Table 1, read-out: PI3Kα (IC50)): < 100 nM
- IC50 [1, 16]: < 100 nM
- IC50 ([1]; refers to Table 5, read-out: PI3Kα inhibitor in biochemical assays): < 100 nM

SMILES: Cc1nc(NC(=O)N2CCC[C@H]2C(N)=O)sc1-c1ccnc(C(C)(C)C(=O)OC2CCOC2=O)c1 (some centres unmarked) [Compound (1)]
- IC50 [1, 15]: < 100 nM

SMILES: COc1cccc2c1C(=O)c1c(O)c3c(c(O)c1C2=O)C[C@@](O)(C(=O)CO)C[C@@H]3O[C@H]1C[C@H](N)[C@H](O)[C@H](C)O1 [doxorubicin]
- tumor burden and survival after a single injection [14]: did not have a significant effect

SMILES: CCOC(=O)C(C)c1cc(-c2sc(NC(=O)N3CCC[C@H]3C(N)=O)nc2C)ccn1 (mixture of isomers) [Compound (6)]
- IC50 [1, 15]: < 100 nM
